According to ChEMBL document CHEMBL1123380, “Spin trapping of superoxide and hydroxyl radicals with substituted pyrroline 1-oxides” (J Med Chem, 1986):

Experiments:
[1] = Compound was evaluated for the partition coefficient in octanol/water (1-octanol / 10 mM phosphate buffer at pH 7.4); assay type: physicochemical
[2] = Compound was evaluated for the partition coefficient in octanol/water; assay type: physicochemical

| K [1] | K [2] | SMILES |
| --- | --- | --- |
| 0.02 |  | CC1(C)CCC=[N+]1[O-] |
|  | 1.1 | CCCCC(C)(CCC=O)[N+](=O)[O-] (centres undefined) |
|  | 4.9 | CCCC(CCC)(CCC=O)[N+](=O)[O-] |
|  | 0.8 | O=CCCC1([N+](=O)[O-])CCCC1 |
